Experimental data: ChEMBL document CHEMBL4680212, “Discovery of T-1101 tosylate as a first-in-class clinical candidate for Hec1/Nek2 inhibition in cancer therapy” (Eur J Med Chem, 2020); call rule not given here

What was measured:
[1] = Tmax in Beagle dog at 10 mg/kg, po administered as single dose via gavage by LC-MS/MS analysis; format: ADME, organism-based, Canis lupus familiaris; details: in vivo
[2] = Tmax in CD-1 mouse at 10 mg/kg, po administered as single dose via gavage by LC-MS/MS analysis; format: ADME, organism-based; details: in vivo
[3] = Cmax in CD-1 mouse at 10 mg/kg, po administered as single dose via gavage by LC-MS/MS analysis; format: ADME, organism-based; parameters: route oral, dose 10 mg/kg; details: in vivo
[4] = Half life in CD-1 mouse at 10 mg/kg, po administered as single dose via gavage by LC-MS/MS analysis; format: ADME, organism-based; details: in vivo
[5] = Cmax in Beagle dog at 10 mg/kg, po administered as single dose via gavage by LC-MS/MS analysis; format: ADME, organism-based, Canis lupus familiaris; parameters: route oral, dose 10 mg/kg; details: in vivo
[6] = Oral bioavailability in CD-1 mouse at 10 mg/kg administered as single dose via gavage by LC-MS/MS analysis; format: ADME, organism-based; details: in vivo
[7] = AUC in CD-1 mouse at 10 mg/kg, po administered as single dose via gavage by LC-MS/MS analysis; format: ADME, organism-based; parameters: dose 10 mg/kg; details: in vivo
[8] = AUC in Beagle dog at 10 mg/kg, po administered as single dose via gavage by LC-MS/MS analysis; format: ADME, organism-based, Canis lupus familiaris; parameters: dose 10 mg/kg; details: in vivo
[9] = Oral bioavailability in Beagle dog at 10 mg/kg administered as single dose via gavage by LC-MS/MS analysis; format: ADME, organism-based, Canis lupus familiaris; details: in vivo
[10] = Half life in Beagle dog at 10 mg/kg, po administered as single dose via gavage by LC-MS/MS analysis; format: ADME, organism-based, Canis lupus familiaris; details: in vivo
Huh-7 [11] = test: Antitumor activity against human Huh-7 cells xenografted in SCID mouse assessed as tumor growth at […], po administered twice daily for 28 days measured post last dose relative to control; format: functional; details: time 28 day
HeLa [12] = test: Cell cycle arrest in human HeLa cells assessed as accumulation at G1 phase at 1 uM measured after 24 hrs by propidium iodide staining based FACS analysis (reference value: 66.51%); format: functional
[13] = Toxicity in Sprague-Dawley rat assessed as change in clinical pathology at 60 mg/kg, po measured during 28 days; format: organism-based; details: in vivo, time 28 day
[14] = Toxicity in Sprague-Dawley rat assessed as lethargy up to 60 mg/kg, po administered as single dose; format: organism-based; details: in vivo
K562 = test: Antiproliferative activity against human K562 cells measured after 96 hrs by CellTiter 96 Aqueous One Solution Reagent based assay; format: functional, cell-based; details: K562, 96 h
MDA-MB-468 [15] = test: Induction of mitosis in human MDA-MB-468 cells assessed as mitotic abnormalities at 1 uM measured after 48 hrs by immunofluorescence staining based microscopic analysis (reference value: 23%); format: functional
HeLa [16] = test: Cell cycle arrest in human HeLa cells assessed as accumulation at G2/M phase at 1 uM measured after 24 hrs by propidium iodide staining based FACS analysis (reference value: 12.93%); format: functional
Huh-7 [17] = test: Antitumor activity against human Huh-7 cells xenografted in SCID mouse assessed as tumor growth at 25 mg/kg, po administered once daily for 28 days measured post last dose relative to control; format: functional; details: time 28 day
MDA-MB-468 [18] = test: Induction of mitosis in human MDA-MB-468 cells assessed as mitotic abnormalities at 1 uM measured after 24 hrs by immunofluorescence staining based microscopic analysis (reference value: 23%); format: functional
MDA-MB-231 [19] = test: Antiproliferative activity against human MDA-MB-231 cells measured after 96 hrs by CellTiter 96 Aqueous One Solution Reagent based assay; format: functional, cell-based; details: MDA-MB-231, 96 h
Huh-7 [20] = test: Anticancer activity against human Huh-7 cells after 24 hrs by CellTiter 96 Aqueous One Solution Reagent based assay; format: functional
[21] = Toxicity in Sprague-Dawley rat assessed as change in touch response up to 60 mg/kg, po administered as single dose; format: organism-based; details: in vivo
[22] = Ratio of drug level in tumor to plasma of human Huh-7 cells xenografted SCID mouse at 10 mg/kg, iv measured after 1 hr by LC-MS/MS analysis; format: ADME, organism-based; details: tumour
[23] = Drug level in tumor of human Huh-7 cells xenografted SCID mouse at 10 mg/kg, iv measured after 1 hr by LC-MS/MS analysis; format: ADME, organism-based, Neoplasm; details: read-out: Drug uptake
[24] = Toxicity in Beagle dog assessed as cardiopulmonary effect at 40 mg/kg, po administered as single dose; format: organism-based, Canis lupus familiaris; details: in vivo
Huh-7 [25] = test: Antiproliferative activity against human Huh-7 cells by CellTiter 96 Aqueous One Solution Reagent based assay; format: functional; parameters: dose or concentration left out as unconfirmed
MDA-MB-231 [26] = test: Antitumor activity against human MDA-MB-231 cells xenografted in SCID mouse assessed as tumor growth at 25 mg/kg, po administered twice daily for 28 days measured post last dose relative to control; format: functional; details: time 28 day
[27] = Drug level in tumor of human Huh-7 cells xenografted SCID mouse at 10 mg/kg, iv measured after 12 hrs by LC-MS/MS analysis; format: ADME, organism-based, Neoplasm; details: read-out: Drug uptake
COLO 205 = test: Antiproliferative activity against human COLO 205 cells measured after 96 hrs by CellTiter 96 Aqueous One Solution Reagent based assay; format: functional
[28] = Toxicity in Sprague-Dawley rat assessed as tremor up to 60 mg/kg, po administered as single dose; format: organism-based; details: in vivo
[29] = Toxicity in Sprague-Dawley rat assessed as effect on organ at 60 mg/kg, po measured during 28 days; format: organism-based; details: in vivo, time 28 day
[30] = Ratio of drug level in tumor to plasma of human MDA-MB-231 cells xenografted SCID mouse at 10 mg/kg, iv measured after 2 hrs by LC-MS/MS analysis; format: ADME, organism-based; details: tumour
[31] = Ratio of drug level in tumor to plasma of human Huh-7 cells xenografted SCID mouse at 10 mg/kg, iv measured after 12 hrs by LC-MS/MS analysis; format: ADME, organism-based; details: tumour
[32] = Toxicity in Sprague-Dawley rat assessed as restlessness up to 60 mg/kg, po administered as single dose; format: organism-based; details: in vivo
HeLa [33] = test: Cell cycle arrest in human HeLa cells assessed as accumulation at S phase at 1 uM measured after 24 hrs by propidium iodide staining based FACS analysis (reference value: […]%); format: functional
[34] = Drug level in tumor of human Huh-7 cells xenografted SCID mouse at 10 mg/kg, iv measured after 24 hrs by LC-MS/MS analysis; format: ADME, organism-based, Neoplasm; details: read-out: Drug uptake
[35] = Ratio of drug level in tumor to plasma of human Huh-7 cells xenografted SCID mouse at 10 mg/kg, iv measured after 8 hrs by LC-MS/MS analysis; format: ADME, organism-based; details: tumour
[36] = Ratio of drug level in tumor to plasma of human Huh-7 cells xenografted SCID mouse at 10 mg/kg, iv measured after 4 hrs by LC-MS/MS analysis; format: ADME, organism-based; details: tumour
[37] = Drug level in tumor of human Huh-7 cells xenografted SCID mouse at 10 mg/kg, iv measured after 8 hrs by LC-MS/MS analysis; format: ADME, organism-based, Neoplasm; details: read-out: Drug uptake
Huh-7 [38] = test: Antitumor activity against human Huh-7 cells xenografted in SCID mouse assessed as tumor growth at 50 mg/kg, po administered twice daily for 28 days measured post last dose relative to control; format: functional; details: time 28 day
U-937 = test: Antiproliferative activity against human U-937 cells measured after 96 hrs by CellTiter 96 Aqueous One Solution Reagent based assay; format: functional
HeLa [39] = test: Antiproliferative activity against human HeLa cells measured after 96 hrs by CellTiter 96 Aqueous One Solution Reagent based assay; format: functional, cell-based
[40] = Drug level in tumor of human MDA-MB-231 cells xenografted SCID mouse at 10 mg/kg, iv measured after 2 hrs by LC-MS/MS analysis; format: ADME, organism-based, Neoplasm; details: read-out: Drug uptake
MCF7 = test: Antitumor activity against human MCF7 cells xenografted in SCID mouse assessed as tumor growth at 50 mg/kg, po administered twice daily for 28 days measured post last dose relative to control; format: functional; details: time 28 day
[41] = Drug level in tumor of human Huh-7 cells xenografted SCID mouse at 10 mg/kg, iv measured after 4 hrs by LC-MS/MS analysis; format: ADME, organism-based, Neoplasm; details: read-out: Drug uptake
[42] = Drug level in tumor of human Huh-7 cells xenografted SCID mouse at 10 mg/kg, iv measured after 0.5 hrs by LC-MS/MS analysis; format: ADME, organism-based, Neoplasm; details: read-out: Drug uptake
U2OS = test: Antiproliferative activity against human U2OS cells measured after 96 hrs by CellTiter 96 Aqueous One Solution Reagent based assay; format: functional
Huh-7 [43] = test: Antitumor activity against human Huh-7 cells xenografted in SCID mouse assessed as tumor growth at […], po administered twice daily for 28 days measured post last dose in presence of sorafenib relative to control; format: functional; details: time 28 day
[44] = Ratio of drug level in tumor to plasma of human Huh-7 cells xenografted SCID mouse at 10 mg/kg, iv measured after 0.5 hrs by LC-MS/MS analysis; format: ADME, organism-based; details: tumour
BT-474 = test: Antitumor activity against human BT-474 cells xenografted in SCID mouse assessed as tumor growth at 50 mg/kg, po administered twice daily for 28 days measured post last dose relative to control; format: functional; details: time 28 day
MDA-MB-468 [45] = test: Antiproliferative activity against human MDA-MB-468 cells measured after 96 hrs by CellTiter 96 Aqueous One Solution Reagent based assay; format: functional, cell-based; details: MDA-MB-468, 96 h
[46] = Toxicity in Sprague-Dawley rat assessed as convulsion up to 60 mg/kg, po administered as single dose; format: organism-based; details: in vivo
[47] = Ratio of drug level in tumor to plasma of human Huh-7 cells xenografted SCID mouse at 10 mg/kg, iv measured after 24 hrs by LC-MS/MS analysis; format: ADME, organism-based; details: tumour
[48] = Toxicity in Sprague-Dawley rat assessed as effect on locomotor activity up to 60 mg/kg, po administered as single dose; format: organism-based; details: in vivo
HeLa [49] = test: Cell cycle arrest in human HeLa cells assessed as accumulation at sub-G1 phase at 1 uM measured after 24 hrs by propidium iodide staining based FACS analysis (reference value: 3.64%); format: functional
[50] = molecular target: Voltage-gated inwardly rectifying potassium channel KCNH2 (Homo sapiens, UniProt Q12809); test: Inhibition of human ERG
Voltage-gated inwardly rectifying potassium channel KCNH2, sequence (Q12809 whole entry): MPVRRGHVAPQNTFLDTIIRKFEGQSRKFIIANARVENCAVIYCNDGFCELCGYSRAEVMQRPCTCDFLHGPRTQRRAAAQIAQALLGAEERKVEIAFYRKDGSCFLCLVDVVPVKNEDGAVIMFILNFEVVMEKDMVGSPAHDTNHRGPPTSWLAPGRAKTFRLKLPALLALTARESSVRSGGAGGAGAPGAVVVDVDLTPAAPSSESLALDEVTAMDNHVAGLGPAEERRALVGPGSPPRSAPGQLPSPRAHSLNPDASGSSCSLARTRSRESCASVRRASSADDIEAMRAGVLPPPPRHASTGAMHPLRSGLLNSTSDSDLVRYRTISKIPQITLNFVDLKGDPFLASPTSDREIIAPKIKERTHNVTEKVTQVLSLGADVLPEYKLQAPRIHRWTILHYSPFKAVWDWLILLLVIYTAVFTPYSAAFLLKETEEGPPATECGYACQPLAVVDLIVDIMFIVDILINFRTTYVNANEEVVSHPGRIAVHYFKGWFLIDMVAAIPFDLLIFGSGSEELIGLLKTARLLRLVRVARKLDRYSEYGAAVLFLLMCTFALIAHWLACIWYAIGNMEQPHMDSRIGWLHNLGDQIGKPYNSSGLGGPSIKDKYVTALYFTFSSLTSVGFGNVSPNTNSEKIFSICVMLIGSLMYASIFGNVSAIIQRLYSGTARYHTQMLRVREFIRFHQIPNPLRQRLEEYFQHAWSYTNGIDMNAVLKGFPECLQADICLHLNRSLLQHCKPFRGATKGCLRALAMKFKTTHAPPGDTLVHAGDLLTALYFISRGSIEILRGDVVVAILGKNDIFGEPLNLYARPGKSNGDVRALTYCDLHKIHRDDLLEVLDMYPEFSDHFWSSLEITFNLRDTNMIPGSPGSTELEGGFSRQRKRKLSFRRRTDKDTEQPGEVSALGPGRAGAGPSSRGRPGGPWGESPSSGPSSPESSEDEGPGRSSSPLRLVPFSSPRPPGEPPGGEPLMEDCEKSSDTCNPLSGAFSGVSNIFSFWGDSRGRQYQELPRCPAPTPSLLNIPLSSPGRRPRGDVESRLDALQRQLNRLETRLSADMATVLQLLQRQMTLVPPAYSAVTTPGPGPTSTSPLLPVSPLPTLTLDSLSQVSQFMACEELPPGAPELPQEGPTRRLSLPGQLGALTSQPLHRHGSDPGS

[51] = Toxicity in Sprague-Dawley rat assessed as change in serum biochemistry at 60 mg/kg, po measured during 28 days; format: organism-based; details: in vivo, time 28 day

For `COCCOc1cnc(Sc2cc(C)c(-c3csc(NC(=O)c4ccncc4)n3)c(C)c2)cn1.Cc1ccc(S(=O)(=O)O)cc1`, the Tmax [1] was 1 h, the Tmax [2] was 1 h and the Cmax [3] was 8130 nM. For the same compound, the half-life [4] was 2.81 h, the Cmax [5] was 980 nM and the bioavailability [6] was 77.4%. It also gave an AUC [7] of 62.5 µM·h, an AUC [8] of 8.61 µM·h and a bioavailability [9] of 24.9%. It also gave a half-life [10] of 4.53 h.
In the case of `COCCOc1cnc(Sc2cc(C)c(-c3csc(NC(=O)c4ccncc4)n3)c(C)c2)cn1`, the T/C (Huh-7 [11]) is reported as 61%, the Activity (HeLa [12]) is reported as 54.2% and the Activity [13] is reported as “Non-Toxic”. The Activity [14] was “Non-Toxic”, the IC50 (K562) was 18 nM and the Activity (MDA-MB-468 [15]) was 64%. It also gave an Activity (HeLa [16]) of 9.27%, a T/C (Huh-7 [17]) of 25% and an Activity (MDA-MB-468 [18]) of 45%. The IC50 (MDA-MB-231 [19]) was 14.8 nM, the GI50 (Huh-7 [20]) was 59.9 nM and the Activity [21] was “Non-Toxic”. It also gave a Ratio [22] of 26.1%, a concentration at 1 h [23] of 2660 nM and a Tmax [2] of 0.5 h. The Cmax [3] was 6300 nM, the Activity [24] was “Non-Toxic” and the GI50 (Huh-7 [25]) was 35 nM. The T/C (MDA-MB-231 [26]) was 40%, the concentration at 12 h [27] was 507 nM and the half-life [4] was 2.57 h. The GI50 (COLO 205) was 29.1 nM, the bioavailability [6] was 50.6% and the Activity [28] was “Non-Toxic”. For the same compound, the Activity [29] was “Non-Toxic”, the Ratio [30] was 24.1% and the Ratio [31] was 60.5%. The Activity [32] was “Non-Toxic”, the AUC [7] was 43.5 µM·h and the Activity (HeLa [33]) was 15.07%. It also gave a concentration at 24 h [34] of 59.9 nM, a Ratio [35] of 35% and a Ratio [36] of 33.2%. The concentration at 8 h [37] was 937 nM, the T/C (Huh-7 [38]) was 18% and the GI50 (U-937) was 12.4 nM. For the same compound, the IC50 (HeLa [39]) was 21.1 nM, the concentration at 2 h [40] was 2950 nM and the T/C (MCF7) was 52%. The concentration at 4 h [41] was 2070 nM, the concentration at 0.5 h [42] was 3380 nM and the GI50 (U2OS) was 83.2 nM. For the same compound, the T/C (Huh-7 [43]) was 26%, the Ratio [44] was 20.7% and the T/C (BT-474) was 19%. For the same compound, the IC50 (MDA-MB-468 [45]) was 21.5 nM, the Activity [46] was “Non-Toxic” and the Ratio [47] was 41.1%. For the same compound, the Activity [48] was “Non-Toxic”, the Activity (HeLa [49]) was 20.44% and the “inhibition (INH)” value [50] was “Not Active”. The Activity [51] was “Non-Toxic”.
